“Also recorded” adds a separate entry of the source. Like-named read-outs stand apart in the source and are kept apart here.

The test system of data set [1] is HTLV-III/LAV. As to conditions: cited from earlier work.
Data set [2] can be described thus: Cytotoxicity to ATH8 cells cultured with the nucleoside (trypan blue viable cell count). The note with it: human. The data set is classed as cell-based. As to the method:
(§1) ^b The percentage of cytotoxicity was determined by the following
(§2) 100 × [1 - (number of viable cells cultured in the presence of the
(§3) nucleoside)/(number of viable cells cultured alone)].
(§4) HTLV-III/LAV cytopathic effect assay was performed using ATH8 cells as previously described.* Briefly, 2×10^5 ATH8 cells were exposed to HTLV-IIIB virus (2,000 virus particles/cell) for 45 min after treatment with polybrene, resuspended in 2 ml of culture medium containing interleukin 2 in the presence or absence of various concentrations of compounds, and incubated in culture tubes at 37° C. in 5% CO2 /95% air humidifedd atmosphere. Control cells were treated similarly but were not exposed to the virus. At various time points on days 5 to 7 of culture, the total viable cells were counted in a hemocytometer by the trypan blue dye exclusion method.

The nature of data set [3]: Penetration of the blood-brain barrier / entry into the central nervous system.
Data set [4] has as its system HTLV-III/LAV. The note with it: in vitro, cited from earlier work.
Data set [5] has as its system T4^+ lymphocytes. The note with it: 0.5 and 5.0 micromoles; cited from earlier work.
The conditions of data set [6]: water or body fluids; listed as ddA; cited from earlier work.
Data set [7] has as its system HTLV-III/LAV. As to the kind of experiment: HTLV-III/LAV cytopathic effect assay using ATH8 cells (protective effect). In kind it is cell-based, HTLV-IIIB. The note with it: for protection (in words): 200 micromolar; for doses required for protection (in words): relative to other dideoxy nucleosides / ddC 1; for protective / anti-HTLV-III activity (in words): in vitro. The procedure:
^a The percentage of protective effect of a nucleoside was determined
by the following formula:
100 × [(number of viable cells exposed to HTLVIII and cultured in
the presence of the nucleoside) - (number of viable cells exposed to
HTLVII I cultured in the absence of the nucleoside)]/[(number of viable
cells cultured alone) - (number of viable cells exposed to HTLVIII in the
absence of the nucleoside)].
as §4

Data set [8] has as its system ATH8 cells. The experiment in a line: Cytotoxicity to ATH8 cells cultured with the nucleoside (trypan blue viable cell count). As to conditions: in vitro. The data set is classed as cell-based. The procedure: as §1, §2, §3, §4
Data set [9] is described as follows: Basicity and protonation. The data set is classed as physicochemical. The note with it: relative to 2',3'-dideoxycytidine.
Data set [10] has as its system mouse fibroblasts. As to conditions: Cancer Research, 1975, 35, 1547-1554; cited from earlier work.
Data set [11] relates to reverse transcriptase. The note with it: cited from earlier work.
Setting [12] is: 5 μM, ATH8 cells, read-out: Cytotoxicity (%).
[13] abbreviates: 10 μM, ATH8 cells, read-out: Cytotoxicity (%).
The mark [14] stands for this setting: 50 μM, ATH8 cells, read-out: Cytotoxicity (%).
[15] abbreviates: 200 μM, ATH8 cells, read-out: Cytotoxicity (%).
Setting [16] is: 0.5 μM, ATH8 cells, read-out: Cytotoxicity (%).

Take `Cc1cn([C@H]2C[C@H](N=[N+]=[N-])[C@@H](CO)O2)c(=O)[nH]c1=O` [AZT, 3-azido-3'-deoxythymidine]: in [1], the “activity in test systems (in words)” value is recorded as “a compound with activity in test systems”.
Turning to `Nc1ccn([C@H]2CC[C@@H](CO)O2)c(=O)n1` [Compound 1, 2',3'-dideoxycytidine], in [2] (ath8 cells), the cytotoxicity at 0.05 µM was found to be 0%, the cytotoxicity at 0.5 µM turned out to be 0%, the cytotoxicity at 5 µM was 0% and the cytotoxicity at 50 µM stood at 30%. In addition, the “penetration of the blood-brain barrier / entry into the central nervous system” value in [3] is “enter the central nervous system, very poorly”. Besides, in [4], the “protection against the cytopathic effects of HTLV-III/LAV (in words)” value (shortened to “protection … of HTLV-III/LAV (in words)”) is listed as “most potent member of the group on the basis of molarity”. Moreover, the “protection … of HTLV-III/LAV (in words)” value in data set [4] (listed as ddC) was “potent protective agent; also recorded: very effective”. The “cytotoxicity (in words)” value in [5] is on record as “non-cytotoxic”.
In data set [2] (ATH8 cells), `Nc1ncnc2c1ncn2[C@H]1CC[C@@H](CO)O1` [Compound 2] registered a cytotoxicity at 1 µM of 0% and a cytotoxicity at 100 µM of 0%. Moreover, in data set [2] (setting [12]), the cytotoxicity at 5 µM came to 6%. Besides, the cytotoxicity at 10 µM in data set [2] (setting [13]) worked out at 0%. Moreover, the cytotoxicity at 50 µM in [2] (setting [14]) was determined as 0%. The cytotoxicity at 200 µM in data set [2] (setting [15]) amounted to 0%. For the same molecule, in data set [4], the “protection … of HTLV-III/LAV (in words)” value was “very effective”. The “solubility (in words)” value in data set [6] is recorded as “relatively insoluble; also recorded: not very soluble in water or body fluids”.
On to `Cc1cn([C@H]2CC[C@@H](CO)O2)c(=O)[nH]c1=O` [Compound 3, dideoxythymidine], for which, in data set [7], the “protection (in words)” value is given as “considerable protection” and the “doses required for protection (in words)” value is given as “unusually high doses”. The molecule also showed an inhibition at 10 µM in data set [7] (Human immunodeficiency virus 1, ATH-8, 10 μM, ATH8 cells, days 5 to 7) of 3%. Besides, the cytotoxicity at 10 µM in data set [2] (setting [13]) is 8%. Further, the cytotoxicity at 50 µM in [2] (setting [14]) amounted to 8%. Besides, the cytotoxicity at 100 µM in data set [2] (ATH8 cells) came to 13%. For the same molecule, the cytotoxicity at 200 µM in data set [2] (setting [15]) stood at 6%. The molecule also registered a cytotoxicity at 500 µM in [2] (500 μM, ATH8 cells) of 30%. For the same molecule, in data set [2] (1000 μM, ATH8 cells), the cytotoxicity at 1000 µM is 40%. In data set [2] (2000 μM, ATH8 cells), the cytotoxicity at 2000 µM stood at 53%.
For the molecule `Nc1ncn([C@H]2CC[C@@H](CO)O2)c(=O)n1` [Compound 10, 2',3'-Dideoxy-5-azacytidine], in [7] (10 micromolar), the “anti-HTLV-III activity (in words)” value is “significant anti-HTLV-III activity”. This molecule displayed a cytotoxicity at 1 µM in data set [2] (ATH8 cells) of 13%. For the same molecule, the cytotoxicity at 10 µM in [2] (setting [13]) came out at 19%. Also, the cytotoxicity at 50 µM in data set [2] (setting [14]) worked out at 62%. The “cytotoxicity (in words)” value in data set [8] was “clearly more cytotoxic than ddC”.
`Cc1cn([C@H]2CC[C@@H](CO)O2)c(=O)nc1N` [Compound 15, 2',3'-Dideoxy-5-methylcytidine]: the “protective / anti-HTLV-III activity (in words)” value in data set [7] is “devoid of protective effects”. In addition, the MCC in data set [2] (ath8 cells, read-out: concentration at which toxicity began to show) came out at 100 µM. In data set [2] (ATH8 cells), this molecule registered a cytotoxicity at 2 µM of 23% and a cytotoxicity at 100 µM of 44%. The cytotoxicity at 10 µM in [2] (setting [13]) was 27%.
For the molecule `Cc1cn([C@H]2C[C@H](O)[C@@H](CO)O2)c(=O)nc1N` [Compound 16, 5-methyl-2'-deoxycytidine], in data set [7], the “protective / anti-HTLV-III activity (in words)” value was “neither protective nor cytotoxic”. In [8], the “cytotoxicity (in words)” value is recorded as “neither protective nor cytotoxic”.
As to `Nc1nc(=O)n([C@H]2CC[C@@H](CO)O2)cc1Br` [Compound 17, 2',3'-Dideoxy-5-bromocytidine], in data set [7], the “protective / anti-HTLV-III activity (in words)” value is given as “neither protective nor cytotoxic”. This molecule came in with a cytotoxicity at 1 µM in data set [2] (ATH8 cells) of 14%. Further, in [2] (setting [13]), the cytotoxicity at 10 µM came out at 14%. In [2] (30 μM, ATH8 cells), this molecule came in with a cytotoxicity at 30 µM of 2%. Besides, the cytotoxicity at 200 µM in [2] (setting [15]) is 0%. Further, the “cytotoxicity (in words)” value in data set [8] is “neither protective nor cytotoxic”.
In the case of `Nc1nc(=O)n([C@H]2CC[C@@H](CO)O2)cc1F` [Compound 22, 2',3'-Dideoxy-5-fluorocytidine], the inhibition at 0.05 µM in data set [7] (Human immunodeficiency virus 1, ATH-8, 0.05 μM, ATH8 cells, days 5 to 7) is 5%. Also, in [7], the “protective / anti-HTLV-III activity (in words)” value is listed as “as protective of HTLV-III infected cells as the lead compound 1”. Also, in [2] (0.05 μM, ATH8 cells, read-out: Cytotoxicity (%)), the cytotoxicity at 0.05 µM was determined as 5%. Also, in [2] (setting [16]), the cytotoxicity at 0.5 µM came to 0%. Also, the cytotoxicity at 5 µM in data set [2] (setting [12]) was 0%. For the same molecule, in data set [2] (setting [14]), the cytotoxicity at 50 µM is 9%. The “penetration of the blood-brain barrier / entry into the central nervous system” value in [3] is given as “penetrate the blood-brain barrier”. In [9], the basicity entry is on record as “less basic than the parent compound” and the protonation result was “less protonated than the parent compound”.
Turning to `Nc1ccn([C@H]2CC[C@@H](COP(=O)(O)O)O2)c(=O)n1` [Compound 24], in [7], the “doses required for protection (in words)” value is “significant protection was beginning to be observed at doses approximately ten times higher than were required for activity with ddC 1”. Also, the cytotoxicity at 0.5 µM in data set [2] (setting [16]) was 0%. This molecule came in with a cytotoxicity at 2 µM in data set [2] (ATH8 cells) of 7%. Moreover, the cytotoxicity at 10 µM in data set [2] (setting [13]) turned out to be 0%.
Molecule `Nc1ncnc2c1ncn2[C@H]1CC[C@@H](COP(=O)(O)O)O1` [Compound 25, 2',3'-dideoxyadenosine-5'-phosphate] came in with an inhibition at 1 µM in data set [7] (Human immunodeficiency virus 1, ATH-8, 1 μM, ATH8 cells, days 5 to 7) of 25%. The “protective / anti-HTLV-III activity (in words)” value in [7] is given as “just as active as the nucleoside 2, over a wide concentration range”. For the same molecule, the “potency of ddAMP relative to ddA (in words)” value in [7] (low concentrations) is given as “not more potent at low concentrations”. Besides, in data set [2] (ATH8 cells), the cytotoxicity at 1 µM amounted to 2% and the cytotoxicity at 100 µM is 0%. The cytotoxicity at 5 µM in data set [2] (setting [12]) was 10%. The cytotoxicity at 10 µM in data set [2] (setting [13]) was determined as 6%. Further, the cytotoxicity at 50 µM in [2] (setting [14]) was 4%. Besides, the cytotoxicity at 200 µM in [2] (setting [15]) stood at 5%. Also, in [10], the “cytotoxicity in mouse fibroblasts (in words)” value is on record as “cytotoxic consequences” and the “entry into mouse fibroblasts” value is listed as “appeared to enter mouse fibroblasts intact”.
Turning to `Cc1cn([C@H]2CC[C@@H](COP(=O)(O)O)O2)c(=O)[nH]c1=O` [Compound 26], in data set [7], the “protection (in words)” value is “essentially inactive”. Further, in [2] (ath8 cells), the cytotoxicity at 10 µM was 9%, the cytotoxicity at 50 µM was 9% and the cytotoxicity at 200 µM stood at 10%.
In the case of `O=C(O)P(=O)(O)O` [foscarnet], the “inhibition of reverse transcriptase (in words)” value (shortened to “inhibition … (in words)”) in [11] is listed as “inhibit this enzyme”.
Take `NC(=O)c1ncn([C@@H]2O[C@H](CO)[C@@H](O)[C@H]2O)n1` [ribavirin]: the “inhibition … (in words)” value in data set [11] is “inhibit this enzyme”.
For `Cc1ccc(C(=O)Nc2ccc(S(=O)(=O)O)c3cc(S(=O)(=O)O)cc(S(=O)(=O)O)c23)cc1NC(=O)c1cccc(NC(=O)Nc2cccc(C(=O)Nc3cc(C(=O)Nc4ccc(S(=O)(=O)O)c5cc(S(=O)(=O)O)cc(S(=O)(=O)O)c45)ccc3C)c2)c1` [suramin], the “inhibition … (in words)” value in [11] is “inhibit this enzyme”.

The term inhibition denotes the change of the read-out against control, counted positive when it falls.
